Measured values: patent US20150148249A1, “METHOD OF IMPROVING THE SENSITIVITY OF COMPETITIVE IMMUNOASSAY” (SHENZHEN BIOEASY BIOTECHNOLOGY CO., LTD, priority 2012, published 2015)
Where “and” joins values, the source holds several entries; their conditions need not be identical. Identical values can stand only once.

Key:
Assay type in all cases: binding
chloramphenicol Mcab = assay: Competitive chemiluminescence immunoassay for chloramphenicol (Embodiment 5)
Protocol: • 1) Preparation of the chloramphenicol microplate: add chloramphenicol-BSA conjugate into the ELISA plate, 100 μL per well, overnight at 4° C., wash 3 times with a separation time of 3 minutes each, pat dry; add 5% skimmed milk powder 130 μL per well, block for 1 hour at 37° C., pat dry; wash 3 times with wash buffer, pat dry, leave for reservation. Prepare the chloramphenicol standard solutions with wash buffer: 0 ppb, 0.01 ppb, 0.03 ppb, 0.09 ppb, 0.27 ppb, 0.81 ppb. • 2) Mix the standard and the chloramphenicol Mcab in equal volumes, incubate for 20 minutes at 37° C.; then transfer the reaction product into chloramphenicol microplate; • Group 1: transfer the reaction product into ELISA plate, 20 μL/well, reaction for 1 minute at 37° C., discard liquid in the well, repeat the operation 5 times, and the pre-reaction product added to each well is total 100 μL; • Group 2: one-time transfer the whole 100 μL reaction product into the chloramphenicol microplate, reacting for 20 minute at 37° C.; • 3) Wash 3 times; add HRP labeled secondary antibody, 100 μL per well, react for 45 minutes at 37° C.; wash 5 times; after adding luminous substrate, chemiluminescence measuring instrument is applied to measure the luminous intensity.

ciprofloxacin antibody [1] = assay: Competitive ELISA for ciprofloxacin, pre-reaction mode vs direct addition (Embodiment 1)
Protocol: Coat the ELISA plate with ciprofloxacin BSA conjugate, 1 μg/mL, 100 μL per well, blocking overnight at 4° C. Then block with 3% skimmed milk powder the following day. Prepare ciprofloxacin standards, 0 ppb, 1 ppb, 3 ppb, 9 ppb, 27 ppb, 81 ppb with the wash buffer (PBST).
The experiment is divided into two groups.
Group 1: pre-incubate 60 μL standards and 60 μL diluted ciprofloxacin antibody for 20 minutes at 37° C.; then take 100 μL reaction product and add to the ELISA plate covering with ciprofloxacin conjugate, react for 30 minutes at 37° C.; wash the plate, add HRP labeled secondary antibody, react for 30 minutes at 37° C., wash the plate; add chromogenic agent 100 μL, react for 15 minutes at 37° C.; and finally add 50 μL termination solution, then measure the OD450 with a microplate reader.
Group 2: add into the ELISA plate covering with ciprofloxacin conjugate with 50 μL standard and 50 μL antibody, in the sequence; react for 30 minutes at 37° C., wash the plate; add HRP labeled secondary antibody, react for 30 minutes at 37° C., wash the plate; add chromogenic agent 100 μL, react for 15 minutes at 37° C.; and finally add 50 μL termination solution, then measure OD450 with a microplate reader.

ciprofloxacin antibody [2] = assay: Competitive ELISA for ciprofloxacin, different re-reaction times (Embodiment 2)
Protocol: (§1) Coat the ELISA plate with ciprofloxacin BSA conjugate, 1 μg/mL, 100 μL per well, blocking overnight at 4° C. Then block with 3% skimmed milk powder the following day. Prepare ciprofloxacin standards, 0 ppb, 1 ppb, 5 ppb, and 10 ppb with wash buffer.
The experiment is divided into 5 groups, each group takes 100 μL standard and 100 μL ciprofloxacin antibody, pre-react for 20 minutes at 37° C. in the microplates, then add to ciprofloxacin ELISA plates:
Take 120 μL pre-reaction product to the ciprofloxacin ELISA plates from group 1, group 2, group 3 and group 4, and resume reacting for 30 minutes, 20 minutes, 10 minutes and 5 minutes respectively; wash the plate; add HRP labeled secondary antibody, react for 30 minutes at 37° C., wash the plate; add chromogenic agent 100 μL, react for 15 minutes at 37° C.; and finally add 50 μL termination solution, then measure the OD450.
Take 20 μL pre-reaction solution of antibody and standard from group 5 and add to the ciprofloxacin ELISA plate, react for 1 minute, discard the liquid in the well, and pat dry on absorbent paper, then add 20 μL mixture solution and react for 1 minute, repeat for 6 times altogether; wash the plate; add HRP labeled secondary antibody, react for 30 minutes at 37° C., wash the plate; add chromogenic agent 100 μL, react for 15 minutes at 37° C.; and finally add 50 μL termination solution, then measure the OD450.

ciprofloxacin antibody [3] = assay: Competitive ELISA for ciprofloxacin, different pre-reaction times (Embodiment 3); settings: re-reaction 1 min, 6 times
Protocol: as §1
The experiment is divided into 4 groups, each group takes 100 μL standard and 100 μL ciprofloxacin antibody, pre-incubate for 5 minutes, 10 minutes, 15 minutes and 20 minutes at 37° C. in the microplates respectively, then take 20 μL mixture solutions of antibody and standard and add to the ciprofloxacin ELISA plate, react for 1 minute, discard the liquid in the well, and pat dry on absorbent paper, then add 20 μL mixture solution and react for 1 minute, repeat for a total 6 times; wash the plate; add HRP labeled secondary antibody, react for 30 minutes at 37° C., wash the plate; add chromogenic agent 100 μL, react for 15 minutes at 37° C.; and finally add 50 μL termination solution, then measure the OD450.

Ractopamine antibody = assay: Competitive ELISA for Ractopamine (Embodiment 4)
Protocol: Preparing the Ractopamine microplate: Ractopamine coating antigen is added to the microplate, 100 μL/well, react for 2 hours at 37° C.; discard the liquid in the well; add blocking solution into the microplate, 100 μL/well, blocking for 1 hour at 37° C.; wash 3 times with wash buffer, leave for reservation. Prepare Ractopamine standards with concentrations of 0 ppb, 0.05 ppb, 0.15 ppb, 0.45 ppb, 1.35 ppb, 4.05 ppb respectively, with wash buffer.
Group 1: add 60 μL the standard and the Ractopamine antibody respectively into a new microplate, pre-react for 20 minutes; take 20 μL mixture solution of antibody and standard into the Ractopamine microplate, react for 1 minute, discard the liquid in the well, and pat dry on absorbent paper, then add 20 μL mixture solution and react for 1 minute, repeat for 5 times altogether, the pre-reaction product added into each well is 100 μL altogether; add HRP labeled secondary antibody, 100 μL per well, react for 45 minutes at 37° C.; wash the plate; add chromogenic agent 100 μL, react for 15 minutes at 37° C.; and finally add 50 μL termination solution, then measure the OD450.
Group 2: add 60 μL the standard and the Ractopamine antibody respectively into a new microplate, pre-react for 20 minutes; take 100 μL mixture solution of antibody and standard into the Ractopamine microplate, react for 30 minutes, discard the liquid in the well, and pat dry on absorbent paper; wash the plate; add HRP labeled secondary antibody, 100 μL per well, react for 45 minutes at 37° C., wash the plate; add chromogenic agent 100 μL, react for 15 minutes at 37° C.; and finally add 50 μL termination solution, then measure the OD450.

O=C(N[C@H](CO)[C@H](O)c1ccc([N+](=O)[O-])cc1)C(Cl)Cl [chloramphenicol]
B/B0 (chloramphenicol Mcab; Group 1 (20 μL/well, 1 min, 5 times), chloramphenicol standard 0.01 ppb): 0.88 and 0.89 | B/B0 (chloramphenicol Mcab; Group 1 (20 μL/well, 1 min, 5 times), chloramphenicol standard 0.03 ppb): 0.66 and 0.64 | B/B0 (chloramphenicol Mcab; Group 1 (20 μL/well, 1 min, 5 times), chloramphenicol standard 0.09 ppb): 0.49 and 0.48 | B/B0 (chloramphenicol Mcab; Group 1 (20 μL/well, 1 min, 5 times), chloramphenicol standard 0.27 ppb): 0.21 and 0.23 | B/B0 (chloramphenicol Mcab; Group 1 (20 μL/well, 1 min, 5 times), chloramphenicol standard 0.81 ppb): 0.11 and 0.17 | B/B0 (chloramphenicol Mcab; Group 2 (one-time 100 μL, 20 min), chloramphenicol standard 0.01 ppb): 0.96 and 0.94 | B/B0 (chloramphenicol Mcab; Group 2 (one-time 100 μL, 20 min), chloramphenicol standard 0.03 ppb): 0.88 and 0.89 | B/B0 (chloramphenicol Mcab; Group 2 (one-time 100 μL, 20 min), chloramphenicol standard 0.09 ppb): 0.69 | B/B0 (chloramphenicol Mcab; Group 2 (one-time 100 μL, 20 min), chloramphenicol standard 0.27 ppb): 0.46 and 0.48 | B/B0 (chloramphenicol Mcab; Group 2 (one-time 100 μL, 20 min), chloramphenicol standard 0.81 ppb): 0.28 and 0.27

O=C(O)c1cn(C2CC2)c2cc(N3CCNCC3)c(F)cc2c1=O [Ciprofloxacin]
OD450 (ciprofloxacin antibody [1]; Group 1 (20 min pre-incubation, then 30 min on plate), ciprofloxacin 1 ppb): 1.975 | OD450 (ciprofloxacin antibody [1]; Group 1 (20 min pre-incubation, then 30 min on plate), ciprofloxacin 3 ppb): 1.632 | OD450 (ciprofloxacin antibody [1]; Group 1 (20 min pre-incubation, then 30 min on plate), ciprofloxacin 9 ppb): 1.448 | OD450 (ciprofloxacin antibody [1]; Group 1 (20 min pre-incubation, then 30 min on plate), ciprofloxacin 27 ppb): 0.924 | OD450 (ciprofloxacin antibody [1]; Group 1 (20 min pre-incubation, then 30 min on plate), ciprofloxacin 81 ppb): 0.483 | OD450 (ciprofloxacin antibody [1]; Group 2 (no pre-incubation, 30 min on plate), ciprofloxacin 1 ppb): 1.904 | OD450 (ciprofloxacin antibody [1]; Group 2 (no pre-incubation, 30 min on plate), ciprofloxacin 3 ppb): 1.643 | OD450 (ciprofloxacin antibody [1]; Group 2 (no pre-incubation, 30 min on plate), ciprofloxacin 9 ppb): 1.203 | OD450 (ciprofloxacin antibody [1]; Group 2 (no pre-incubation, 30 min on plate), ciprofloxacin 27 ppb): 0.952 | OD450 (ciprofloxacin antibody [1]; Group 2 (no pre-incubation, 30 min on plate), ciprofloxacin 81 ppb): 0.523 | OD450 (ciprofloxacin antibody [2]; ciprofloxacin 1 ppb, re-reaction 1 min, 6 times): 0.863 and 0.813 | OD450 (ciprofloxacin antibody [2]; ciprofloxacin 1 ppb, re-reaction time 5 min): 1.21 and 1.189 | OD450 (ciprofloxacin antibody [2]; ciprofloxacin 1 ppb, re-reaction time 10 min): 1.517 and 1.488 | OD450 (ciprofloxacin antibody [2]; ciprofloxacin 1 ppb, re-reaction time 20 min): 1.884 and 1.874 | OD450 (ciprofloxacin antibody [2]; ciprofloxacin 1 ppb, re-reaction time 30 min): 2.036 and 1.989 | OD450 (ciprofloxacin antibody [2]; ciprofloxacin 5 ppb, re-reaction 1 min, 6 times): 0.412 and 0.372 | OD450 (ciprofloxacin antibody [2]; ciprofloxacin 5 ppb, re-reaction time 5 min): 0.706 and 0.664 | OD450 (ciprofloxacin antibody [2]; ciprofloxacin 5 ppb, re-reaction time 10 min): 1.003 and 0.984 | OD450 (ciprofloxacin antibody [2]; ciprofloxacin 5 ppb, re-reaction time 20 min): 1.342 and 1.343 | OD450 (ciprofloxacin antibody [2]; ciprofloxacin 5 ppb, re-reaction time 30 min): 1.501 and 1.499 | OD450 (ciprofloxacin antibody [2]; ciprofloxacin 10 ppb, re-reaction 1 min, 6 times): 0.302 and 0.332 | OD450 (ciprofloxacin antibody [2]; ciprofloxacin 10 ppb, re-reaction time 5 min): 0.565 and 0.485 | OD450 (ciprofloxacin antibody [2]; ciprofloxacin 10 ppb, re-reaction time 10 min): 0.894 and 0.749 | OD450 (ciprofloxacin antibody [2]; ciprofloxacin 10 ppb, re-reaction time 20 min): 1.204 and 1.101 | OD450 (ciprofloxacin antibody [2]; ciprofloxacin 10 ppb, re-reaction time 30 min): 1.269 and 1.182 | IC50 (ciprofloxacin antibody [2]; competitive reaction with solid phase antigen in a short time after pre-reaction): 1 ppb | IC50 (ciprofloxacin antibody [2]; long re-reaction time (before improvement)): 10 ppb | OD450 (ciprofloxacin antibody [3]; ciprofloxacin 1 ppb, pre-incubation time 5 min): 0.337 | OD450 (ciprofloxacin antibody [3]; ciprofloxacin 1 ppb, pre-incubation time 10 min): 0.385 and 0.353 | OD450 (ciprofloxacin antibody [3]; ciprofloxacin 1 ppb, pre-incubation time 15 min): 0.399 and 0.401 | OD450 (ciprofloxacin antibody [3]; ciprofloxacin 1 ppb, pre-incubation time 20 min): 0.434 and 0.439 | OD450 (ciprofloxacin antibody [3]; ciprofloxacin 5 ppb, pre-incubation time 5 min): 0.17 and 0.169 | OD450 (ciprofloxacin antibody [3]; ciprofloxacin 5 ppb, pre-incubation time 10 min): 0.175 and 0.187 | OD450 (ciprofloxacin antibody [3]; ciprofloxacin 5 ppb, pre-incubation time 15 min): 0.193 and 0.206 | OD450 (ciprofloxacin antibody [3]; ciprofloxacin 5 ppb, pre-incubation time 20 min): 0.213 and 0.22 | OD450 (ciprofloxacin antibody [3]; ciprofloxacin 10 ppb, pre-incubation time 5 min): 0.15 and 0.133 | OD450 (ciprofloxacin antibody [3]; ciprofloxacin 10 ppb, pre-incubation time 10 min): 0.152 and 0.136 | OD450 (ciprofloxacin antibody [3]; ciprofloxacin 10 ppb, pre-incubation time 15 min): 0.153 and 0.149 | OD450 (ciprofloxacin antibody [3]; ciprofloxacin 10 ppb, pre-incubation time 20 min): 0.169 and 0.178 | OD (Ractopamine antibody; Group 1 (20 min pre-reaction; 20 μL, 1 min, 5 times), concentration 0.05 ppb): 1.175 | OD (Ractopamine antibody; Group 1 (20 min pre-reaction; 20 μL, 1 min, 5 times), concentration 0.15 ppb): 0.803 | OD (Ractopamine antibody; Group 1 (20 min pre-reaction; 20 μL, 1 min, 5 times), concentration 0.45 ppb): 0.517 | OD (Ractopamine antibody; Group 1 (20 min pre-reaction; 20 μL, 1 min, 5 times), concentration 1.35 ppb): 0.324 | OD (Ractopamine antibody; Group 1 (20 min pre-reaction; 20 μL, 1 min, 5 times), concentration 4.05 ppb): 0.183 | OD (Ractopamine antibody; Group 2 (20 min pre-reaction; 100 μL, 30 min), concentration 0.05 ppb): 1.584 | OD (Ractopamine antibody; Group 2 (20 min pre-reaction; 100 μL, 30 min), concentration 0.15 ppb): 1.391 | OD (Ractopamine antibody; Group 2 (20 min pre-reaction; 100 μL, 30 min), concentration 0.45 ppb): 1.003 | OD (Ractopamine antibody; Group 2 (20 min pre-reaction; 100 μL, 30 min), concentration 1.35 ppb): 0.602 | OD (Ractopamine antibody; Group 2 (20 min pre-reaction; 100 μL, 30 min), concentration 4.05 ppb): 0.323
